System: CN0375-F725-PDC KRAS spheroid viability
Test: Anticancer human tumor CN0375-F725-PDC patient-derived colon carcinoma cell line growth inhibition [KRAS2]
Details: spheroids with HUVEC and MSC; for IC50: curve of first compound; for viability, T/C: stronger effect = lower value
How it was run: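 Combination screen of spheroid viability in tumor-cell co-cultures with endothelial (HUVEC) and mesenchymal stem cell stroma. Each agent was tested in half-log dilutions, topping at clinical Cmax or at 10 microM without a known Cmax.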

[1] = second compound 0.0316 µM, first compound 0.000316 µM
[2] = second compound 0.0316 µM, first compound 0.001 µM
[3] = second compound 0.0316 µM, first compound 0.00316 µM
[4] = second compound 0.0316 µM, first compound 0.01 µM
[5] = second compound 0.0316 µM, first compound 0.0316 µM
[6] = second compound 0.1 µM, first compound 0.000316 µM
[7] = second compound 0.1 µM, first compound 0.001 µM
[8] = second compound 0.1 µM, first compound 0.00316 µM
[9] = second compound 0.1 µM, first compound 0.01 µM
[10] = second compound 0.1 µM, first compound 0.0316 µM
[11] = second compound 0.316 µM, first compound 0.000316 µM
[12] = second compound 0.316 µM, first compound 0.001 µM
[13] = second compound 0.316 µM, first compound 0.00316 µM
[14] = second compound 0.316 µM, first compound 0.01 µM
[15] = second compound 0.316 µM, first compound 0.0316 µM
[16] = second compound 1 µM, first compound 0.000316 µM
[17] = second compound 1 µM, first compound 0.001 µM
[18] = second compound 1 µM, first compound 0.00316 µM
[19] = second compound 1 µM, first compound 0.01 µM
[20] = second compound 1 µM, first compound 0.0316 µM
[21] = second compound 3.16 µM, first compound 0.000316 µM
[22] = second compound 3.16 µM, first compound 0.001 µM
[23] = second compound 3.16 µM, first compound 0.00316 µM
[24] = second compound 3.16 µM, first compound 0.01 µM
[25] = second compound 3.16 µM, first compound 0.0316 µM
[26] = second compound 0.0316 µM, first compound 0.1 µM
[27] = second compound 0.1 µM, first compound 0.1 µM
[28] = second compound 0.316 µM, first compound 0.1 µM
[29] = second compound 1 µM, first compound 0.1 µM
[30] = second compound 3.16 µM, first compound 0.1 µM
[31] = second compound 0.0316 µM, first compound 0.316 µM
[32] = second compound 0.0316 µM, first compound 1 µM
[33] = second compound 0.0316 µM, first compound 3.16 µM
[34] = second compound 0.0316 µM, first compound 10 µM
[35] = second compound 0.1 µM, first compound 0.316 µM
[36] = second compound 0.1 µM, first compound 1 µM
[37] = second compound 0.1 µM, first compound 3.16 µM
[38] = second compound 0.1 µM, first compound 10 µM
[39] = second compound 0.316 µM, first compound 0.316 µM
[40] = second compound 0.316 µM, first compound 1 µM
[41] = second compound 0.316 µM, first compound 3.16 µM
[42] = second compound 0.316 µM, first compound 10 µM
[43] = second compound 1 µM, first compound 0.316 µM
[44] = second compound 1 µM, first compound 1 µM
[45] = second compound 1 µM, first compound 3.16 µM
[46] = second compound 1 µM, first compound 10 µM
[47] = second compound 3.16 µM, first compound 0.316 µM
[48] = second compound 3.16 µM, first compound 1 µM
[49] = second compound 3.16 µM, first compound 3.16 µM
[50] = second compound 3.16 µM, first compound 10 µM
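Note: spheroids exposed to agents for 7 days.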

Work on `CC(=O)Nc1cccc(-n2c(=O)n(C3CC3)c(=O)c3c(Nc4ccc(I)cc4F)n(C)c(=O)c(C)c32)c1` + C=CC(=O)N1CCN(c2nc(OCC3CCCN3C)nc3c2CCN(c2cccc4cccc(C)c24)C3)CC1CC#N yielded an IC50 (second compound 0.0316 µM) of 5.65 nM, an IC50 (second compound 0.1 µM) of 4.91 nM and an IC50 (second compound 0.316 µM) of 3.19 nM. For the same compound, the IC50 (second compound 1 µM) was 1.62 nM, the IC50 (second compound 3.16 µM) was < 0.1 nM and the viability, T/C (second compound 0.0316 µM, first compound 0.0001 µM) was 91%. It also gave a viability, T/C [1] of 85.7%, a viability, T/C [2] of 67.1% and a viability, T/C [3] of 53.3%. It also gave a viability, T/C [4] of 48.6%, a viability, T/C [5] of 33.9% and a viability, T/C (second compound 0.1 µM, first compound 0.0001 µM) of 92.3%. The viability, T/C [6] was 86%, the viability, T/C [7] was 66.2% and the viability, T/C [8] was 54.2%. The viability, T/C [9] was 44.5%, the viability, T/C [10] was 30.7% and the viability, T/C (second compound 0.316 µM, first compound 0.0001 µM) was 86.8%. For the same compound, the viability, T/C [11] was 77.7%, the viability, T/C [12] was 61.6% and the viability, T/C [13] was 50.8%. For the same compound, the viability, T/C [14] was 38.3%, the viability, T/C [15] was 28.1% and the viability, T/C (second compound 1 µM, first compound 0.0001 µM) was 81.9%. It also gave a viability, T/C [16] of 73.1%, a viability, T/C [17] of 53.7% and a viability, T/C [18] of 41.2%. For the same compound, the viability, T/C [19] was 35.7%, the viability, T/C [20] was 25.3% and the viability, T/C (second compound 3.16 µM, first compound 0.0001 µM) was 19.1%. It also gave a viability, T/C [21] of 20.7%, a viability, T/C [22] of 9.33% and a viability, T/C [23] of 12.7%. It also gave a viability, T/C [24] of 1.9% and a viability, T/C [25] of 7.1%.

In the case of `CN(C)C/C=C/C(=O)Nc1cc2c(Nc3ccc(F)c(Cl)c3)ncnc2cc1O[C@H]1CCOC1` + C=CC(=O)N1CCN(c2nc(OCC3CCCN3C)nc3c2CCN(c2cccc4cccc(C)c24)C3)CC1CC#N, the IC50 (second compound 0.0316 µM) is reported as > 100 nM, the IC50 (second compound 0.1 µM) is reported as > 100 nM and the IC50 (second compound 0.316 µM) is reported as > 100 nM. For the same compound, the IC50 (second compound 1 µM) was > 100 nM, the IC50 (second compound 3.16 µM) was < 0.316 nM and the viability, T/C [1] was 107%. For the same compound, the viability, T/C [2] was 94.9%, the viability, T/C [3] was 88.8% and the viability, T/C [4] was 84.8%. The viability, T/C [5] was 82.7%, the viability, T/C [26] was 76.4% and the viability, T/C [6] was 105%. It also gave a viability, T/C [7] of 98.6%, a viability, T/C [8] of 88% and a viability, T/C [9] of 87.7%. For the same compound, the viability, T/C [10] was 80%, the viability, T/C [27] was 77.5% and the viability, T/C [11] was 102%. For the same compound, the viability, T/C [12] was 101%, the viability, T/C [13] was 84.2% and the viability, T/C [14] was 81.5%. It also gave a viability, T/C [15] of 73.4%, a viability, T/C [28] of 76.7% and a viability, T/C [16] of 90.6%. It also gave a viability, T/C [17] of 96.7%, a viability, T/C [18] of 83.4% and a viability, T/C [19] of 75.9%. It also gave a viability, T/C [20] of 75.6%, a viability, T/C [29] of 74.1% and a viability, T/C [21] of 30.9%. The viability, T/C [22] was 24.6%, the viability, T/C [23] was 8.56% and the viability, T/C [24] was 9.52%. It also gave a viability, T/C [25] of 10.6% and a viability, T/C [30] of 10.4%.

`COC(=O)c1ccc2c(C(=Nc3ccc(N(C)C(=O)CN4CCN(C)CC4)cc3)c3ccccc3)c(O)[nH]c2c1` + C=CC(=O)N1CCN(c2nc(OCC3CCCN3C)nc3c2CCN(c2cccc4cccc(C)c24)C3)CC1CC#N was tested, and the IC50 (second compound 0.0316 µM) was 2970 nM, the IC50 (second compound 0.1 µM) was 2800 nM and the IC50 (second compound 0.316 µM) was 2340 nM. The IC50 (second compound 1 µM) was 1480 nM, the IC50 (second compound 3.16 µM) was < 31.6 nM and the viability, T/C [5] was 102%. For the same compound, the viability, T/C [26] was 95.3%, the viability, T/C [31] was 91.1% and the viability, T/C [32] was 91.5%. The viability, T/C [33] was 47.6%, the viability, T/C [34] was 0.22% and the viability, T/C [10] was 104%. It also gave a viability, T/C [27] of 98.8%, a viability, T/C [35] of 92.6% and a viability, T/C [36] of 89.4%. It also gave a viability, T/C [37] of 45.1%, a viability, T/C [38] of 0.36% and a viability, T/C [15] of 99.5%. The viability, T/C [28] was 100%, the viability, T/C [39] was 93.2% and the viability, T/C [40] was 90.8%. It also gave a viability, T/C [41] of 35.5%, a viability, T/C [42] of 0.16% and a viability, T/C [20] of 93.8%. It also gave a viability, T/C [29] of 91.3%, a viability, T/C [43] of 85.2% and a viability, T/C [44] of 68.7%. For the same compound, the viability, T/C [45] was 15.4%, the viability, T/C [46] was 0.41% and the viability, T/C [25] was 26.5%. For the same compound, the viability, T/C [30] was 20.2%, the viability, T/C [47] was 21.8% and the viability, T/C [48] was 5.53%. The viability, T/C [49] was 1.94% and the viability, T/C [50] was 0.67%.

In the case of `COc1cc(Nc2ncc3c(n2)-c2ccc(Cl)cc2C(c2c(F)cccc2OC)=NC3)ccc1C(=O)O` + C=CC(=O)N1CCN(c2nc(OCC3CCCN3C)nc3c2CCN(c2cccc4cccc(C)c24)C3)CC1CC#N, the IC50 (second compound 0.0316 µM) is reported as > 10000 nM, the IC50 (second compound 0.1 µM) is reported as > 10000 nM and the IC50 (second compound 0.316 µM) is reported as > 10000 nM. The IC50 (second compound 1 µM) was > 10000 nM, the IC50 (second compound 3.16 µM) was < 31.6 nM and the viability, T/C [5] was 96.6%. The viability, T/C [26] was 108%, the viability, T/C [31] was 91.8% and the viability, T/C [32] was 95%. The viability, T/C [33] was 93.9%, the viability, T/C [34] was 74.9% and the viability, T/C [10] was 109%. For the same compound, the viability, T/C [27] was 105%, the viability, T/C [35] was 91.3% and the viability, T/C [36] was 92.5%. For the same compound, the viability, T/C [37] was 95.9%, the viability, T/C [38] was 79.3% and the viability, T/C [15] was 103%. For the same compound, the viability, T/C [28] was 101%, the viability, T/C [39] was 94.8% and the viability, T/C [40] was 91.8%. For the same compound, the viability, T/C [41] was 88%, the viability, T/C [42] was 75.7% and the viability, T/C [20] was 88.3%. The viability, T/C [29] was 90.8%, the viability, T/C [43] was 82.9% and the viability, T/C [44] was 83.2%. It also gave a viability, T/C [45] of 83.9%, a viability, T/C [46] of 73.8% and a viability, T/C [25] of 16.5%. For the same compound, the viability, T/C [30] was 23%, the viability, T/C [47] was 14% and the viability, T/C [48] was 44.8%. It also gave a viability, T/C [49] of 42.3% and a viability, T/C [50] of 22.3%.

For `O=C(c1cc(Cc2n[nH]c(=O)c3ccccc23)ccc1F)N1CCN(C(=O)C2CC2)CC1` + C=CC(=O)N1CCN(c2nc(OCC3CCCN3C)nc3c2CCN(c2cccc4cccc(C)c24)C3)CC1CC#N, the IC50 (second compound 0.0316 µM) was > 10000 nM, the IC50 (second compound 0.1 µM) was > 10000 nM and the IC50 (second compound 0.316 µM) was > 10000 nM. The IC50 (second compound 1 µM) was > 10000 nM, the IC50 (second compound 3.16 µM) was < 31.6 nM and the viability, T/C [5] was 104%. The viability, T/C [26] was 104%, the viability, T/C [31] was 99% and the viability, T/C [32] was 102%. For the same compound, the viability, T/C [33] was 99.4%, the viability, T/C [34] was 94.7% and the viability, T/C [10] was 108%. The viability, T/C [27] was 107%, the viability, T/C [35] was 101% and the viability, T/C [36] was 98.8%. For the same compound, the viability, T/C [37] was 104%, the viability, T/C [38] was 99.3% and the viability, T/C [15] was 101%. For the same compound, the viability, T/C [28] was 107%, the viability, T/C [39] was 97.5% and the viability, T/C [40] was 99.6%. For the same compound, the viability, T/C [41] was 101%, the viability, T/C [42] was 92.5% and the viability, T/C [20] was 100%. For the same compound, the viability, T/C [29] was 102%, the viability, T/C [43] was 97.9% and the viability, T/C [44] was 90.6%. For the same compound, the viability, T/C [45] was 103%, the viability, T/C [46] was 89% and the viability, T/C [25] was 34.1%. For the same compound, the viability, T/C [30] was 29%, the viability, T/C [47] was 21.5% and the viability, T/C [48] was 22.7%. For the same compound, the viability, T/C [49] was 28.9% and the viability, T/C [50] was 8.54%.

— PubChem BioAssay AID1963860 (Molecular Pharmacology Branch, DTP, NCI, 2024)
